Reference: US11331273B2, “Film-coated tablet having high chemical stability of active ingredient” (Intercept Pharmaceuticals, Inc., priority 2016, dated 2022)
Where “and” joins values, the source holds several entries; their conditions need not be identical. Equal values may be shown once.

Assay: Storage stability of obeticholic acid (unmodified) in test tubes: dimer quantified per Test Example 2
Format: physicochemical
Protocol: Obeticholic acid (unmodified) was weighed out in amounts of 5 mg into test tubes to serve as individual samples.
Test Lubes containing the obeticholic acid (unmodified) prepared in Example 1 were stored under the following conditions. The amounts of obeticholic acid dimer generated before (initial) and after storage were measured in accordance with Test Example 2. • Four weeks (4 W) at 50° C. and 85% RH (open) • Four weeks (4 W) at 60° C. (closed)
The amount of obeticholic acid dimer generated was measured in the same manner described in Test Example 1, with the exception that the sample solution was prepared as follows.
Acetonitrile/water (9/1) was added in an amount of exactly 10 mL to test tubes that had been retrieved from storage, and the contents were ultrasounded to extract the obeticholic acid. Following centrifugation (10 min at 3000 rpm), the supernatant was made into samples for HPLC assay (500 μg/mL obeticholic acid).

CC[C@H]1[C@@H](O)[C@@H]2[C@H](CC[C@]3(C)[C@@H]([C@H](C)CCC(=O)O)CC[C@@H]23)[C@@]2(C)CC[C@@H](O)C[C@@H]12 [Comparative Example 3, 3α,7α-dihydroxy-6α-ethyl-5β-cholan-24-oic acid]
Amount of obeticholic acid dimer production (%) (50° C., 85% RH, open, 4 W): 0.83% | Increase (%) in obeticholic acid dimerization from initial product (50° C., 85% RH, open, 4 W): 0.79% | Amount of obeticholic acid dimer production (%) (60° C., closed, 4 W): 0.81% | Increase (%) in obeticholic acid dimerization from initial product (60° C., closed, 4 W): 0.77% and 0.78% | Amount of obeticholic acid dimer production (%) (Initial): 0.04%
